The record followed here is patent US10131679B2, “Substituted dihydropyrrolopyrazole compound” (UBE INDUSTRIES, LTD., priority 2014, dated 2018).

For one assay, the target named is T1, CDK7 (Homo sapiens, UniProt P50613).
T1 construct: purchased Carna Biosciences, Inc. 04-108
Briefly: CDK7 enzyme inhibition test. In kind it is biochemical. To be noted: Ki=IC50/(1+S/Km); 33P bound to MBP, [γ-33P]ATP, 30° C. for 20 minutes; read-out: Ki value of CDK7 inhibitory activity. The protocol:
CDK7 Enzyme Inhibition Test
The preparation of a buffer solution was performed by mixing a N-2-hydroxyethylpiperazine-N′-2-ethanesulfonic acid buffer solution (HEPES buffer solution) (pH 7.4), dithiothreitol (DTT), Triton X-100, and magnesium chloride (MgCl2). A 500 μM [γ-^33P]ATP solution was used by diluting a 10 mM ATP solution and a commercially available [γ-^33P]ATP solution (manufactured by PerkinElmer, Inc., Code No. NEG-302H) with the buffer solution. A CDK7 solution was used by diluting commercially available CDK7 (manufactured by Carna Biosciences, Inc., Catalog No. 04-108) with the buffer solution. A substrate solution was used by diluting myelin basic protein (MBP) with the buffer solution. As for the preparation of a reaction solution, the buffer solution, the 500 μM [γ-^33P]ATP solution, the CDK7 solution, and the substrate solution were mixed at 4° C. to obtain a reaction solution.
CDK7 enzyme reaction was performed by adding 5 μL of a test compound solution prepared with 10% dimethyl sulfoxide (DMSO)/90% injectable distilled water, and 45 μL of the reaction solution to a 1.5 mL microtube at 4° C. and reacting in the microtube at 30° C. for 20 minutes in a water bath incubator. After the reaction, a 10% aqueous trichloroacetic acid (TCA) solution was added to each microtube while cooled to 4° C., and mixed to terminate the reaction. The resultant was left standing at 4° C. for 10 minutes and then centrifuged in a centrifuge, and the supernatant was discarded. Next, a 2% aqueous TCA solution was added, mixed, and then centrifuged in a centrifuge, and the supernatant was discarded. This washing operation was performed twice. After the washing, precipitates were dissolved in a 1 N aqueous sodium hydroxide (NaOH) solution, and the energy quantity (radioactivity) of the reaction product was measured with a liquid scintillation counter.
The calculation of the inhibitory activity of the test compound against CDK7 was performed as a test compound concentration inhibiting 50% of the amount of ^33P bound to MBP (IC50 value) by using EXSUS (version 8.0.0 or version 8.0.1, manufactured by CAC Exicare Corp.).
The calculation of a Ki value was performed according to the following calculation expression. S means the concentration of ATP contained in the reaction solution, and Km means a Michaelis-Menten constant. Ki=IC50/(1+S/Km)

The subject of assay [1] is human large intestine cancer cell line (HCT-116). Briefly: Human large intestine cancer (HCT-116) cell growth inhibition test. It is filed as cell-based. To be noted: 72 h, HCT-116, culture for 3 days, sulforhodamine B absorbance. The protocol: Human Large Intestine Cancer (HCT-116) Cell Growth Inhibition Test
The measurement of a human large intestine cancer cell growth inhibitory effect was carried out by modifying the method of Simak et al. (Cancer Research, 69, 6208 (2009)).
A human large intestine cancer cell line (HCT-116) (manufactured by DS Pharma Biomedical Co., Ltd., Cat. No. EC91091005) was cultured in McCoy's 5a (manufactured by GIBCO/Thermo Fisher Scientific, Inc., REF. 16600-082) medium containing 10% FBS (manufactured by GIBCO/Thermo Fisher Scientific, Inc., REF. 10082-147) and 1% penicillin/streptomycin/amphotericin B (manufactured by GIBCO/Thermo Fisher Scientific, Inc., REF. 15240-096) and inoculated at 1.0×10^3 cells/well in a 96-well plate (manufactured by Corning Inc., REF. 353072). After overnight culture in a carbon dioxide incubator, it was replaced with a fresh McCoy's 5a medium containing 10% FBS on the next day, and a test compound dissolved in DMSO (manufactured by Wako Pure Chemical Industries, Ltd., Code No. 043-07216) (final DMSO concentration: 0.1%) was added and left standing in a carbon dioxide incubator. After culturing for 3 days, the absorbance of each well was measured by using In Vitro Toxicology Assay Kit Sulforhodamine B based (manufactured by Sigma-Aldrich Co. LLC., Pcode 1001910706).
The rate of inhibition of cell growth at each concentration was calculated from the test compound concentration and the absorbance of sulforhodamine B, and the concentration of the test compound necessary for inhibiting 50% of cell growth (IC50 value) was calculated by using EXSUS (version 8.0.0 or version 8.0.1, manufactured by CAC Exicare Corp.).

One may read the Ki as the equilibrium dissociation constant of an inhibitor or competing ligand from its target. A word on the IC50: it is the concentration that inhibits the measured activity by half. Higher therefore signals weaker potency.

Bounds are passed on as bounds.

T1 sequence (P50613 whole entry): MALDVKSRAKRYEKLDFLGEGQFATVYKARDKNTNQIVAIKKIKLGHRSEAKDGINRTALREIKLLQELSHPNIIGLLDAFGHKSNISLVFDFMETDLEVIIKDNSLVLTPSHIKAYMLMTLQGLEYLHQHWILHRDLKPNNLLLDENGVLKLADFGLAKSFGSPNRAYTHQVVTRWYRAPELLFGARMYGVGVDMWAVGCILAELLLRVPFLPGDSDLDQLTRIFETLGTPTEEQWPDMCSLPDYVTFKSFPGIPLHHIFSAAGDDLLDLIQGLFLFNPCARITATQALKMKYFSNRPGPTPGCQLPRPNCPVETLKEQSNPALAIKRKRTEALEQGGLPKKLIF
T1 sequence (P51946 whole entry partner): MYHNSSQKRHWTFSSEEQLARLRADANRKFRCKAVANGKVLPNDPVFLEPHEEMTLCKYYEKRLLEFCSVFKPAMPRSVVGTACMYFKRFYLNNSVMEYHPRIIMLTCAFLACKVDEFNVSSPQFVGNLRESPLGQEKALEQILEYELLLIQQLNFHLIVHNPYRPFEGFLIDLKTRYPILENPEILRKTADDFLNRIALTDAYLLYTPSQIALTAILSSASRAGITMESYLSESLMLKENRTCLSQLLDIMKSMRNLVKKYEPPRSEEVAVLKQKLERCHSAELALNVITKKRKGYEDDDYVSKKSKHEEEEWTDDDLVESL
T1 sequence (P51948 whole entry partner): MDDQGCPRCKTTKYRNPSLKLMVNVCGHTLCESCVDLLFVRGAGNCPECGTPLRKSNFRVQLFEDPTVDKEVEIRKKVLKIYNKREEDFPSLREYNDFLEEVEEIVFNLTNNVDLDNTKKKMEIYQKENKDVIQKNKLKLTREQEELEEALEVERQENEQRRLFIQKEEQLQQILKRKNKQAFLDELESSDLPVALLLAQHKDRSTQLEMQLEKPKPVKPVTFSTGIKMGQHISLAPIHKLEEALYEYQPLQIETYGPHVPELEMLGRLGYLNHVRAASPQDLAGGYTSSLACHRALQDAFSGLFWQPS

Turning to `CC1(C)c2[nH]nc(NC(=O)C3([Si](C)(C)C)CCC3)c2CN1C(=O)NC(c1ccccc1)C(F)(F)CO` (racemic) [IV-362, N-(2,2-Difluoro-3-hydroxy-1-phenylpropyl)-6,6-dimethyl-3-[1-(trimethylsilyl)cyclobutanecarboxamido]-4,6-dihydropyrrolo[3,4-c]pyrazole-5(1H)-carboxamide], the Ki on CDK7 was at most 50 nM. For the same compound, the IC50 in assay [1] is at most 500 nM.

In turn, `CC(C)(CO)C(NC(=O)N1Cc2c(NC(=O)C3([Si](C)(C)C)CCC3)n[nH]c2C1(C)C)c1ccccc1` (single isomer, unassigned; (+)) [IV-672, (+)-N-(3-Hydroxy-2,2-dimethyl-1-phenylpropyl)-6,6-dimethyl-3-[1-(trimethylsilyl)cyclobutanecarboxamido]-4,6-dihydropyrrolo[3,4-c]pyrazole-5(1H)-carboxamide] displayed an IC50 in assay [1] of at most 500 nM.

On to `COC(C(=O)N1Cc2c(NC(=O)C3([Si](C)(C)C)CCC3)n[nH]c2C1(C)C)c1cccs1` (single isomer, unassigned; (+)) [IV-1547, (+)-N-{5-[2-Methoxy-2-(thiophen-2-yl)acetyl]-6,6-dimethyl-1,4,5,6-tetrahydropyrrolo[3,4-c]pyrazol-3-yl}-1-(trimethylsilyl)cyclobutanecarboxamide], for which the Ki on CDK7 was at most 50 nM.

As to `CC(C)(CO)C(NC(=O)N1Cc2c(NC(=O)C3([Si](C)(C)C)CCC3)n[nH]c2C1(C)C)c1cccc(F)c1` (single isomer, unassigned; (-)) [IV-920, (−)-N-[1-(3-Fluorophenyl)-3-hydroxy-2,2-dimethylpropyl]-6,6-dimethyl-3-[1-(trimethylsilyl)cyclobutanecarboxamido]-4,6-dihydropyrrolo[3,4-c]pyrazole-5(1H)-carboxamide], the Ki at CDK7 was at most 50 nM.

Regarding `CC1(C)c2[nH]nc(NC(=O)C3([Si](C)(C)C)CC3)c2CN1C(=O)[C@H](CO)c1ccccc1` [III-592, (S)—N-[5-(3-Hydroxy-2-phenylpropanoyl)-6,6-dimethyl-1,4,5,6-tetrahydropyrrolo[3,4-c]pyrazol-3-yl]-1-(trimethylsilyl)cyclopropanecarboxamide], on CDK7, the Ki was at most 50 nM. The IC50 in assay [1] is at most 500 nM.

On to `C[C@@H](Oc1ccccc1)C(=O)N1Cc2c(NC(=O)C3([Si](C)(C)C)CC3)n[nH]c2C1(C)C` [III-1140, (R)—N-[6,6-Dimethyl-5-(2-phenoxypropanoyl)-1,4,5,6-tetrahydropyrrolo[3,4-c]pyrazol-3-yl]-1-(trimethylsilyl)cyclopropanecarboxamide], for which the inhibitory constant (Ki) on CDK7 is at most 50 nM. The IC50 in assay [1] is at most 500 nM.

In the case of `CC(C)C(O)CNC(=O)N1Cc2c(NC(=O)C3([Si](C)(C)C)CCC3)n[nH]c2C1(C)C` (centres unmarked) [IV-446, N-(2-Hydroxy-3-methylbutyl)-6,6-dimethyl-3-[1-(trimethylsilyl)cyclobutanecarboxamido]-4,6-dihydropyrrolo[3,4-c]pyrazole-5(1H)-carboxamide], the Ki on CDK7 was at most 50 nM. The same compound showed an IC50 in assay [1] of at most 500 nM.

For the compound `CC1(C)c2[nH]nc(NC(=O)C3([Si](C)(C)C)CCC3)c2CN1C(=O)NC(CO)c1cccnc1` (centres unmarked) [IV-542, N-[2-Hydroxy-1-(pyridin-3-yl)ethyl]-6,6-dimethyl-3-[1-(trimethylsilyl)cyclobutanecarboxamido]-4,6-dihydropyrrolo[3,4-c]pyrazole-5(1H)-carboxamide], the Ki on CDK7 was at most 50 nM.

In assay [1], `CC1(C)c2[nH]nc(NC(=O)C3([Si](C)(C)C)CCC3)c2CN1C(=O)CC(CO)c1ccccc1` (centres unmarked) [IV-558, N-[5-(4-Hydroxy-3-phenylbutanoyl)-6,6-dimethyl-1,4,5,6-tetrahydropyrrolo[3,4-c]pyrazol-3-yl]-1-(trimethylsilyl)cyclobutanecarboxamide] gave a concentration for half-maximal inhibition (IC50) of at most 500 nM.

In assay [1], `CC1(C)c2[nH]nc(NC(=O)C3([Si](C)(C)C)CCC3)c2CN1C(=O)CC(O)c1ccccc1` (centres unmarked) [IV-562, N-[5-(3-Hydroxy-3-phenylpropanoyl)-6,6-dimethyl-1,4,5,6-tetrahydropyrrolo[3,4-c]pyrazol-3-yl]-1-(trimethylsilyl)cyclobutanecarboxamide] yielded an IC50 of at most 500 nM.

Regarding `CC1(C)c2[nH]nc(NC(=O)C3([Si](C)(C)C)CCC3)c2CN1C(=O)[C@H](CO)c1ccccc1` [IV-633, (S)—N-[5-(3-Hydroxy-2-phenylpropanoyl)-6,6-dimethyl-1,4,5,6-tetrahydropyrrolo[3,4-c]pyrazol-3-yl]-1-(trimethylsilyl)cyclobutanecarboxamide], the Ki at CDK7 is at most 50 nM. The compound further registered an IC50 in assay [1] of at most 500 nM.

Turning to `CCC(O)(CC)C[C@@H](NC(=O)N1Cc2c(NC(=O)C3([Si](C)(C)C)CCC3)n[nH]c2C1(C)C)c1ccccc1` [IV-759, (R)—N-(3-Ethyl-3-Hydroxy-1-phenylpentyl)-6,6-dimethyl-3-[1-(trimethylsilyl)cyclobutanecarboxamido]-4,6-dihydropyrrolo[3,4-c]pyrazole-5(1H)-carboxamide], in assay [1], the IC50 is at most 500 nM.

The compound `CC1(C)c2[nH]nc(NC(=O)C3([Si](C)(C)C)CCC3)c2CN1C(=O)N[C@@H](CO)Cc1ccccc1` [IV-861, (R)—N-(1-Hydroxy-3-phenylpropan-2-yl)-6,6-dimethyl-3-[1-(trimethylsilyl)cyclobutanecarboxamido]-4,6-dihydropyrrolo[3,4-c]pyrazole-5(1H)-carboxamide] gave an IC50 in assay [1] of at most 500 nM.

`CC1(C)c2[nH]nc(NC(=O)C3([Si](C)(C)C)CCC3)c2CN1C(=O)C(Oc1ccccc1)c1ccccc1` (centres unmarked) [IV-1211, N-[6,6-Dimethyl-5-(2-phenoxy-2-phenylacetyl)-1,4,5,6-tetrahydropyrrolo[3,4-c]pyrazol-3-yl]-1-(trimethylsilyl)cyclobutanecarboxamide] yielded an IC50 in assay [1] of at most 500 nM.

`COCCC(C(=O)N1Cc2c(NC(=O)C3([Si](C)(C)C)CCC3)n[nH]c2C1(C)C)c1ccccc1` (centres unmarked) [IV-1224, N-[5-(4-Methoxy-2-phenylbutanoyl)-6,6-dimethyl-1,4,5,6-tetrahydropyrrolo[3,4-c]pyrazol-3-yl]-1-(trimethylsilyl)cyclobutanecarboxamide] registered an IC50 in assay [1] of at most 500 nM.

As to `CC(Oc1ccccc1Cl)C(=O)N1Cc2c(NC(=O)C3([Si](C)(C)C)CCC3)n[nH]c2C1(C)C` (centres unmarked) [IV-1266, N-{5-[2-(2-Chlorophenoxy)propanoyl]-6,6-dimethyl-1,4,5,6-tetrahydropyrrolo[3,4-c]pyrazol-3-yl}-1-(trimethylsilyl)cyclobutanecarboxamide], the IC50 in assay [1] is at most 500 nM.

Turning to `CC(Oc1cccc(Cl)c1)C(=O)N1Cc2c(NC(=O)C3([Si](C)(C)C)CCC3)n[nH]c2C1(C)C` (centres unmarked) [IV-1268, N-{5-[2-(3-Chlorophenoxy)propanoyl]-6,6-dimethyl-1,4,5,6-tetrahydropyrrolo[3,4-c]pyrazol-3-yl}-1-(trimethylsilyl)cyclobutanecarboxamide], the IC50 in assay [1] is at most 500 nM.

As for `CN(C)CC(Oc1ccccc1)C(=O)N1Cc2c(NC(=O)C3([Si](C)(C)C)CCC3)n[nH]c2C1(C)C` (centres unmarked) [IV-1372, N-{5-[3-(Dimethylamino)-2-phenoxypropanoyl]-6,6-dimethyl-1,4,5,6-tetrahydropyrrolo[3,4-c]pyrazol-3-yl}-1-(trimethylsilyl)cyclobutanecarboxamide], the Ki at CDK7 is at most 50 nM.
